Laboratory results: patent US5124253A (Medisense, Inc., priority 1988, dated 1992)
Values joined by “and” are separate entries in the source; they are usually repeats but may differ in a detail not shown here. Identical values can stand only once.

What was measured:
[1] = cyclic voltammetry of substrate and product; format: physicochemical
From the text: Typically, in the test element, the enzyme and the substrate are in separate carbon-based layers. The respective carbon mixtures are applied to a conductive track of a support, for example in the close proximity of a reference electrode mixture connected to a second track. In this way, a miniaturized sensor is produced which is capable of working with a small sample of blood bridging the electrode areas. The mixtures are suitably applied by screen printing. Suitable enzymes and suitable substrates can be determined by routine experimentation. Bovine liver alkaline phosphatase is the preferred enzyme, and p-aminophenyl phosphate is the preferred substrate. Other candidate substrates include, for example naphthyl phosphate, and 4-ferrocenylaminophenyl phosphate. […] Furthermore the electrochemistry of p-aminophenol is in a potential region where there would be minimal interference from endogenous blood components.
Cyclic voltammograms of p-aminophenyl phosphate before and after incubation with alkaline phosphatase are shown in FIGS. 3 and 4, the lower voltammogram corresponding to post-incubation.

[2] = cited from earlier work
[3] = tested on: bovine liver alkaline phosphatase; conditions: particularly isozyme from bovine liver; cited from earlier work

**Q.** For `Nc1ccc(O)cc1` [p-aminophenol], which “E°' of reversible wave” value [1] is on record?
**A.** about -65 mV

**Q.** For `Cn1c(=O)c2[nH]cnc2n(C)c1=O` [theophylline], which “levels encountered in cases of toxicity” value [2] is on record?
**A.** ≤ 60 μg/ml and ≤ 330 μM

**Q.** What about the “inhibition of alkaline phosphatase isozymes” value [3] of the same compound?
**A.** very potent inhibitor
